# From patent US5961482A, “Iontotherapeutic device and process and iontotherapeutic unit dose” (Rutgers, The State University Of New Jersey, priority 1996, dated 1999)
# Where a name gives a salt, the structure may show the parent alone. Read-outs that look alike come from different tables or passages of the source.
# Columns and labels:
# [1] = test system: blood glucose level (B.G.L.) in diabetic rabbits; assay: Reduction of blood glucose levels in diabetic rabbits by glucose analyzer; format: in vivo
# Procedure: (§1) An aqueous solution of insulin (500 IU/ml) at pH 7.10 is used. An aliquot of 2.5 ml of this insulin solution is filled into the refillable dosage unit having a microporous membrane as the drug-releasing surface. The dosage unit is then assembled as a part of the pharmaceutical reservoir electrode of the iontotherapeutic device and membrane surface thereof is applied to the skin at dorsal region of 3 diabetic rabbits. Blood samples are withdrawn at regular time intervals and analyzed for immunoreactive insulin concentration by radioimmunoassay and for glucose levels by glucose analyzer. The reduction in glucose level from hyperglycemic state is the pharmacodynamic responses to the insulin transdermally absorbed.
# (§2) An aqueous solution of insulin (500 IU/ml) at pH 7.10 is used. An aliquot of 2.5 ml of this insulin solution is filled into the refillable dosage unit having a microporous membrane as the drug-releasing surface. The dosage unit is then assembled as a part of the pharmaceutical reservoir electrode of the iontotherapeutic device and membrane surface thereof is applied to the abdominal skin of 2 groups of diabetic rabbits. Blood samples are withdrawn at regular time intervals and analyzed for immunoreactive insulin concentration by radioimmunoassay and for glucose levels by glucose analyzer. The reduction in glucose level from hyperglycemic state is the pharmacodynamic responses to the insulin transdermally absorbed.
# [2] = In vitro skin permeation of insulin, Valia-Chien cell, I^125-insulin scintillation counting; format: in vitro ADME, hairless rat; details: for Skin Permeation Rate: 5.3 IU/ml, pH 7.1
# Procedure: (§3) An aqueous solution of insulin (5.3 IU/ml containing 0.3 mcCi of I^125 -insulin) is prepared and adjusted to pH 7.1 using NaOH. An aliquot of 3.5 ml of this insulin solution is filled into the refillable dosage unit having a microporous membrane as the drug-releasing surface. The dosage unit is then assembled as a part of the pharmaceutical reservoir electrode of the iontotherapeutic device and membrane surface thereof is applied to the stratum corneum side of hairless rat skin mounted in the Valia-Chien skin permeation cell at 37° C. Samples are withdrawn at regular time intervals and radioactivity is measured by scintillation counter to determine the amount of insulin which has been transdermally absorbed.
# as §3, with “pH 3.7, 5.2 or” for “pH”, “either HCl or NaOH solution.” for “NaOH.”, “radio-activity” for “radioactivity”
# [3] = Plasma immunoreactive insulin concentration in diabetic rabbits by radioimmunoassay; format: in vivo; details: TPIS 1 mA, 500 IU/ml pH 7.10
# Procedure: as §1
# as §2, with “The reduction in glucose level from hyperglycemic state is the pharmacodynamic responses to the insulin transdermally absorbed.” left out
# [4] = test system: blood glucose level (B.G.L.) in the diabetic hairless rats; assay: Reduction in blood glucose level in diabetic hairless rats; format: in vivo
# Procedure: An aqueous solution of insulin at a concentration of 250 IU/ml is prepared by dissolving 193.8 mg (25.8 IU/mg) of pure porcine insulin in 20 ml of citrate buffer at pH 3.6. Two ml of the insulin solution so prepared is filled into a refillable dosage unit having a microporous membrane as the drug-releasing surface. This insulin-containing reservoir-type dosage unit is then assembled as a part of the pharmaceutical reservoir electrode of the iontotherapeutic device and applied successively on the abdominal skin of 9 diabetic hairless rats with the transdermal periodic iontotherapeutic system operating at 1 mA with square waveform mode to study the effect of frequency, on/off ratio and treatment duration on the reduction of blood glucose level. The results are shown and compared, respectively, in FIGS. 16, 17 and 18.
# The same insulin solution is prepared in the same way as in Example 1, except that a phosphate buffer at pH 7.1 is used to replace the double-distilled water. Two ml of the insulin solution so prepared is filled into a refillable dosage unit having a microporous membrane as the drug-releasing surface. This unit dose is applied to 3 diabetic hairless rats following the same operation procedures as in Example 3 to study the effect of treatment duration on the reduction of blood glucose level.
# (§4) An aqueous buffer solution of insulin (250 IU/ml) is prepared in citrate-phosphate buffer at pH 3.68. An aliquot of 2.5 ml of this insulin solution is filled into the refillable dosage unit having a microporous membrane as the drug-releasing surface. The dosage unit is then assembled as a part of the pharmaceutical reservoir electrode of the iontotherapeutic device and membrane surface thereof is applied to the skin at abdominal region of 3 groups of anaesthetized, diabetic hairless rats. Blood samples are withdrawn at regular time intervals and glucose levels are measured by glucose analyzer. The reduction in glucose level from hyperglycemic state is the pharmacodynamic responses to the insulin absorbed transdermally.
# as §4, with “5” for “3 groups of”
# [5] = for Tlag: printed beside pH 4.0 value
# [6] = for Cumulative Amount of Drug Absorbed: donor 6.2 mg/ml pH 9.0, 37° C.
molecule,measurement,setting,value
insulin,reduction of blood glucose level by TIDD,"[1]; TIDD (4× current, 2× administration time), pH 7.10",lower than the normoglycemic level
same,blood glucose levels,"[1]; TPIS 1 mA, 2 KHz, on/off 1/1, square, 40 min, 500 IU/ml pH 7.10, dorsal skin",reduced substantially
same,"blood glucose levels, TPIS vs TIDD","[1]; TPIS 1 mA, 40 min vs TIDD 4 mA, 80 min, 500 IU/ml pH 7.10, abdominal skin",reduced more instantaneously
same,reduction of blood glucose level by TPIS,"[1]; TPIS, from hyperglycemic level, pH 7.10",near instantaneous reduction
same,blood glucose level control by TPIS vs SC,"[1]; TPIS, pH 7.1, compared with subcutaneous administration",controlled at a highly constant level
same,Skin Permeation Rate,"[2]; TIDD 1 mA, 0 Hz, 5 min per 60 min for 7 hrs",37.5 (±4.5) mcIU/cm^2 /hr
same,"increase in TPIS-facilitated skin permeability, pH dependence",[2]; lower pH solution (pH 3.7) vs pH 5.2 and 7.1,greater increase
same,Skin Permeation Rate,"[2]; no iontotherapy, 48 hours",3.94±0.29 mcIU/cm^2 /hr
same,plasma immunoreactive insulin concentration,"[3]; 2 KHz, on/off 1/1, square, 40 min, dorsal skin",increases rapidly
same,"plasma immunoreactive insulin concentration, TPIS vs TIDD","[3]; 40 min vs TIDD 4 mA, 80 min, abdominal skin",increases more rapidly
same,blood glucose levels,"[4]; TPIS 1 mA, 2 KHz, on/off 1/1, 40 min, 250 IU/ml pH 3.68, waveforms compared",reduced substantially
same,"blood glucose levels, Day 1","[4]; TPIS 1 mA, 2 KHz, square, on/off 1/1, 40 min, 250 IU/ml pH 3.68, Day 1",reduced substantially
same,"reduction of blood glucose level, effect of treatment duration","[4]; TPIS 1 mA, on/off 1/1, 1000 Hz, pH 7.1","difference in the rate and the duration, but with equal effectiveness"
same,"reduction of blood glucose level, effect of treatment duration 20-40 minutes","[4]; TPIS 1 mA, on/off 8/1, 2000 Hz, pH 3.6",equally effective
same,"reduction of blood glucose level, 2000 Hz vs 1000 Hz","[4]; TPIS 1 mA, square waveform, frequency of 2000 Hz vs 1000 Hz, pH 3.6",greater magnitude and a longer duration of reduction
same,"blood glucose, Day 3","[4]; TPIS on Day 3 with no insulin in electrode, after insulin delivered on Day 1 (skin depot)",also reduced
"COc1ccc2c3c1O[C@H]1C(=O)CC[C@H]4[C@@H](C2)N(C)CC[C@]314 [Hydrocodone, hydrocodone]",Skin Permeation Rate,"[5]; Control, pH 4.0",3.10 mcg/cm^2 /hr
same,Skin Permeation Rate,"[5]; Control, pH 7.5, ± S.D.",4.75 ± 1.70 mcg/cm^2 /hr
same,Tlag,[5]; Control,5.17 h
same,Skin Permeation Rate,"[5]; DC mode, 1 mA, 2 min hourly for 12 hours, pH 4.0",37.5 mcg/cm^2 /hr
same,Skin Permeation Rate,"[5]; DC mode, 1 mA, 2 min hourly for 12 hours, pH 7.5, ± S.D.",7.61 ± 2.74 mcg/cm^2 /hr
same,Tlag,"[5]; DC mode, 1 mA, 2 min hourly",0.72 h
same,Tlag,"[5]; periodic wave mode, 2000 Hz, on/off 1/1, 1 mA",0.90 h
same,Skin Permeation Rate,"[5]; periodic wave mode, square wave, 2000 Hz, on/off 1/1, 1 mA, 2 min hourly, pH 4.0",59.4 mcg/cm^2 /hr
same,Skin Permeation Rate,"[5]; periodic wave mode, square wave, 2000 Hz, on/off 1/1, 1 mA, 2 min hourly, pH 7.5, ± S.D.",7.01 ± 1.16 mcg/cm^2 /hr
"CN(C)[C@@H]1C(=O)C(C(N)=O)=C(O)[C@@]2(O)C(=O)C3=C(O)c4c(O)cccc4[C@@](C)(O)[C@H]3C[C@@H]12 [Tetracycline HCl, tetracycline HCl]",Cumulative Amount of Drug Absorbed,"[6]; No TPIS, 1.25 hrs",0.0180 mcg/cm^2
same,Cumulative Amount of Drug Absorbed,"[6]; No TPIS, 2.25 hrs",0.0550 mcg/cm^2
same,Cumulative Amount of Drug Absorbed,"[6]; No TPIS, 3.25 hrs",0.0650 mcg/cm^2
same,Cumulative Amount of Drug Absorbed,"[6]; No TPIS, 4.25 hrs",0.1450 mcg/cm^2
same,Cumulative Amount of Drug Absorbed,"[6]; No TPIS, 5.25 hrs",0.3040 mcg/cm^2
same,Cumulative Amount of Drug Absorbed,"[6]; With TPIS (1 mA, 10 min/hr, 2000 Hz, square, on/off 4/1), 1.25 hrs",0.1765 mcg/cm^2
same,Cumulative Amount of Drug Absorbed,"[6]; With TPIS (1 mA, 10 min/hr, 2000 Hz, square, on/off 4/1), 2.25 hrs",0.2555 mcg/cm^2
same,Cumulative Amount of Drug Absorbed,"[6]; With TPIS (1 mA, 10 min/hr, 2000 Hz, square, on/off 4/1), 3.25 hrs",0.7815 mcg/cm^2
same,Cumulative Amount of Drug Absorbed,"[6]; With TPIS (1 mA, 10 min/hr, 2000 Hz, square, on/off 4/1), 4.25 hrs",1.3235 mcg/cm^2
same,Cumulative Amount of Drug Absorbed,"[6]; With TPIS (1 mA, 10 min/hr, 2000 Hz, square, on/off 4/1), 5.25 hrs",3.5600 mcg/cm^2
"COc1ccc2c(c1)c(CC(=O)O)c(C)n2C(=O)c1ccc(Cl)cc1 [Indomethacin, indomethacin]",Skin Permeation Rate,"[6]; No TPIS, pH 5.5",1.47 mcg/cm^2 /hr
same,Skin Permeation Rate,"[6]; With TPIS (1.2 mA, 5 min/hr for 7 hours, 2000 Hz, square, on/off 2/1), pH 2.5",0.76 mcg/cm^2 /hr
same,Skin Permeation Rate,"[6]; With TPIS (1.2 mA, 5 min/hr for 7 hours, 2000 Hz, square, on/off 2/1), pH 4.5",0.44 mcg/cm^2 /hr
same,Skin Permeation Rate,"[6]; With TPIS (1.2 mA, 5 min/hr for 7 hours, 2000 Hz, square, on/off 2/1), pH 5.5",6.30 mcg/cm^2 /hr
